Active and inactive are the calls of the source. The calls are words filed in the database; no cut-off is given here.
Key:
HGC-27 [1] = experiment: Antiproliferative activity against human HGC-27 cells assessed as cell viability at <= 0.41 uM for 48 hrs by MTT assay; format: functional; details: up to 0.41 µM
RKO [2] = experiment: Effect on cell morphology in human RKO cells assessed as appearance of round cells at 10 uM incubated for 48 hrs by giemsa staining based microscopic analysis; format: functional
RKO [3] = experiment: Effect on cell morphology in human RKO cells assessed as condensed morphology at 10 uM incubated for 48 hrs by giemsa staining based microscopic analysis; format: functional
HGC-27 [4] = experiment: Anti-migration activity against human HGC-27 cells assessed as decrease in cell migration rate at 0.37 uM for 48 hrs by crystalline violet staining based assay; format: functional
HGC-27 [5] = experiment: Antiproliferative activity against human HGC-27 cells assessed as clone formation at 0.37 to 3.3 uM incubated for 4 days by crystal violet staining based analysis; format: functional, cell-based; details: dose 0.37-3.3 µM, time 4.0 day
CT26.WT [6] = experiment: Antiproliferative activity against mouse CT26.WT cells assessed as reduction in cell proliferation incubated for 48 hrs by MTT assay; format: functional, cell-based
HGC-27 [7] = experiment: Effect on cell morphology in human HGC-27 cells assessed as appearance of smaller cells at 10 uM incubated for 48 hrs by giemsa staining based microscopic analysis; format: functional
RKO [8] = experiment: Antiproliferative activity against human RKO cells assessed as clone formation at 0.04 to 3.3 uM incubated for 4 days by crystal violet staining based analysis; format: functional, cell-based; details: dose 0.04-3.3 µM, time 4.0 day
RKO [9] = experiment: Anti-migration activity against human RKO cells assessed as decrease in cell migration rate at 0.37 uM for 48 hrs by crystalline violet staining based assay; format: functional
RAW264.7 [10] = experiment: Antiinflammatory activity against LPS-stimulated mouse RAW264.7 cells assessed decrease in IL-1beta release at 6.6 uM incubated for 1 hrs followed by LPS stimulation and measured after 24 hrs by ELISA relative to control; format: functional, cell-based; details: time 25.0 hrs
[11] = target: T1, DNA topoisomerase 1 (Homo sapiens) (UniProt P11387); experiment: Inhibition of human topoisomerase I assessed as DNA unwinding using DNA pBR322 as substrate at 2 uM incubated for 30 mins by ethidium bromide staining based agarose gel electrophoresis
T1 sequence (whole entry): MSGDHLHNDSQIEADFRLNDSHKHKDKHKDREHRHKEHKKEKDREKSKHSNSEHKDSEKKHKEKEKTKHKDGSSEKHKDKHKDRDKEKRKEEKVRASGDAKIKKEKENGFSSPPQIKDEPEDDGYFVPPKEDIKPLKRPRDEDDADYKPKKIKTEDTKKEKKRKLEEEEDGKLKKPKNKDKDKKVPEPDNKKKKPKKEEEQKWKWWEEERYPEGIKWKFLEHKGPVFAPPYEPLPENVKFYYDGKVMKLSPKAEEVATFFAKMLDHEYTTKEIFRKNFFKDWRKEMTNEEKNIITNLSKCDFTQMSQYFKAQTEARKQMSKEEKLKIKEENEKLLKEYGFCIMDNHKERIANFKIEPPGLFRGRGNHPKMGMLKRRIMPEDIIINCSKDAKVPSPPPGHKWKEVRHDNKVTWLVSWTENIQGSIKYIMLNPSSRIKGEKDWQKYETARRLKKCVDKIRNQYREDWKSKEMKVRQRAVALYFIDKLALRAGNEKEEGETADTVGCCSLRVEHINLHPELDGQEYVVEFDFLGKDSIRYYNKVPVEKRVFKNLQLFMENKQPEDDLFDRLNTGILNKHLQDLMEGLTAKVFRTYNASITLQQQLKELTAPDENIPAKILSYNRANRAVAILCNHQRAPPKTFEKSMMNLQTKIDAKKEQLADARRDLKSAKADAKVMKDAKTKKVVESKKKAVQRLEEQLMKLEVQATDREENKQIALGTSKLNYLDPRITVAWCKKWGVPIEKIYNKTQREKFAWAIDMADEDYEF

HGC-27 [12] = experiment: Effect on cell morphology in human HGC-27 cells assessed as condensed morphology at 10 uM incubated for 48 hrs by giemsa staining based microscopic analysis; format: functional
CT26.WT [13] = experiment: Antiproliferative activity against mouse CT26.WT cells assessed as cell viability at 1.11 uM for 48 hrs by MTT assay; format: functional; details: read-out: Activity
HGC-27 [14] = experiment: Antiproliferative activity against human HGC-27 cells assessed as reduction in cell proliferation incubated for 48 hrs by MTT assay; format: functional, cell-based; details: HGC-27, 48 h
HT-29 = experiment: Antiproliferative activity against human HT-29 cells assessed as reduction in cell proliferation incubated for 48 hrs by MTT assay; format: functional, cell-based; details: HT-29, 48 h
RAW264.7 [15] = experiment: Cytotoxicity against mouse RAW264.7 cells assessed as reduction in cell viability at <=11.11 for 24 hrs by MTT assay; format: toxicity, cell-based; details: raw264.7, 24 h
RKO [16] = experiment: Effect on cell morphology in human RKO cells assessed as lose of adherence at 10 uM incubated for 48 hrs by giemsa staining based microscopic analysis; format: functional
RKO [17] = experiment: Anti-migration activity against human RKO cells assessed as inhibition of cell migration at 0.37 uM and measured after 24 hrs by wound healing assay; format: functional, cell-based
RAW264.7 [18] = experiment: Antiinflammatory activity in mouse RAW264.7 cells assessed as reduction in LPS-induced COX-2 expression at 6.6 uM incubated for 1 hrs followed by LPS stimulation and measured after 24 hrs by western blot analysis; format: functional, cell-based; details: time 25.0 hrs
HGC-27 [19] = experiment: Effect on cell morphology in human HGC-27 cells assessed as contracted nucleus at 10 uM incubated for 48 hrs by giemsa staining based microscopic analysis; format: functional
DNA topoisomerase 1 = target: T2, DNA topoisomerase 1 (Homo sapiens, UniProt P11387); experiment: Inhibition of human topoisomerase I assessed as DNA relaxation using DNA pBR322 as substrate incubated for 30 mins by ethidium bromide staining based agarose gel electrophoresis
T2 sequence (P11387 whole entry): T1 sequence (whole entry)

RKO [20] = experiment: Induction of mitochondrial membrane loss in human RKO at 1.1 to 10 uM and measured after 36 hrs by TMRE dye based flow cytometry; format: functional, cell-based; details: dose 1.1-10 µM, DDE = dose-dependent effect
RKO [21] = experiment: Effect on cell morphology in human RKO cells assessed as contracted nucleus at 10 uM incubated for 48 hrs by giemsa staining based microscopic analysis; format: functional
HGC-27 [22] = experiment: Induction of cell cycle arrest in human HGC-27 cells assessed as accumulation at G2/M phase at 3.3 to 10 uM for 24 hrs by propidium iodide staining based flow cytometry; format: functional; details: dose 3.3-10 µM
RKO [23] = experiment: Antiproliferative activity against human RKO cells assessed as reduction in cell proliferation incubated for 48 hrs by MTT assay; format: functional, cell-based
RAW264.7 [24] = experiment: Inhibition of LPS induced NO production in mouse RAW264.7 cells at 6.6 uM incubated for 1 hrs followed by LPS stimulation and measured after 24 hrs by Griess reagent based assay; format: functional, cell-based; details: time 25.0 hrs
RKO [25] = experiment: Induction of cell cycle arrest in human RKO cells assessed as accumulation at G2/M phase at 3.3 to 10 uM for 24 hrs by propidium iodide staining based flow cytometry; format: functional; details: dose 3.3-10 µM
HGC-27 [26] = experiment: Induction of apoptosis in human HGC-27 cells at 1.1 to 10 uM for 24 hrs by Annexin V-FITC/PI staining based flow cytometry; format: functional, cell-based; details: dose 1.1-10 µM
RKO [27] = experiment: Effect on cell morphology in human RKO cells assessed as appearance of smaller cells at 10 uM incubated for 48 hrs by giemsa staining based microscopic analysis; format: functional
HGC-27 [28] = experiment: Effect on cell morphology in human HGC-27 cells assessed as appearance of round cells at 10 uM incubated for 48 hrs by giemsa staining based microscopic analysis; format: functional
HGC-27 [29] = experiment: Effect on cell morphology in human HGC-27 cells assessed as lose of adherence at 10 uM incubated for 48 hrs by giemsa staining based microscopic analysis; format: functional
RKO [30] = experiment: Antiproliferative activity against human RKO cells assessed as cell viability at <= 0.41 uM for 48 hrs by MTT assay; format: functional; details: up to 0.41 µM
SGC-7901 = experiment: Antiproliferative activity against human SGC-7901 cells assessed as reduction in cell proliferation incubated for 48 hrs by MTT assay; format: functional, cell-based; details: SGC-7901, 48 h
RKO [31] = experiment: Induction of apoptosis in human RKO cells at 1.1 to 10 uM for 24 hrs by Annexin V-FITC/PI staining based flow cytometry; format: functional, cell-based; details: dose 1.1-10 µM
HGC-27 [32] = experiment: Induction of mitochondrial membrane loss in human HGC-27 at 1.1 to 10 uM and measured after 36 hrs by TMRE dye based flow cytometry; format: functional, cell-based; details: dose 1.1-10 µM, DDE = dose-dependent effect

Question: For `Cc1c(Cl)cccc1Nc1ccc(F)cc1C(=O)NCc1ccc(O)c(F)c1`, which Activity (HGC-27 [1]) is on record?
Answer: >80%

Question: And the Activity (RKO [2])?
Answer: Active

Question: What about the Activity (RKO [3]) of the same molecule?
Answer: Active

Question: What about the Activity (HGC-27 [4]) of the same molecule?
Answer: Active

Question: What about the Activity (HGC-27 [5]) of the same molecule?
Answer: Active

Question: What about the IC50 (CT26.WT [6]) of the same molecule?
Answer: 8.88 µM

Question: And the Activity (HGC-27 [7])?
Answer: Active

Question: And the Activity (RKO [8])?
Answer: Active

Question: And the Activity (RKO [9])?
Answer: Active

Question: And the Activity (RAW264.7 [10])?
Answer: Active

Question: What about the inhibition [11] of the same molecule?
Answer: 41.1%

Question: And the Activity (HGC-27 [12])?
Answer: Active

Question: What about the viability at 1.11 µM (CT26.WT [13]) of the same molecule?
Answer: > 80%

Question: And the IC50 (HGC-27 [14])?
Answer: 7.23 µM

Question: What about the IC50 (HT-29) of the same molecule?
Answer: 15.8 µM

Question: What about the Activity (RAW264.7 [15]) of the same molecule?
Answer: > 80%

Question: And the Activity (RKO [16])?
Answer: Active

Question: What about the Activity (RKO [17]) of the same molecule?
Answer: Active

Question: And the Activity (RAW264.7 [18])?
Answer: Active

Question: What about the Activity (HGC-27 [19]) of the same molecule?
Answer: Active

Question: What about the IC50 (DNA topoisomerase 1) of the same molecule?
Answer: 4.79 µM

Question: And the Activity (RKO [20])?
Answer: Dde

Question: And the Activity (RKO [21])?
Answer: Active

Question: And the Activity (HGC-27 [22])?
Answer: Active

Question: And the IC50 (RKO [23])?
Answer: 6.74 µM

Question: What about the inhibition (RAW264.7 [24]) of the same molecule?
Answer: Active

Question: And the Activity (RKO [25])?
Answer: Active

Question: And the Activity (HGC-27 [26])?
Answer: Active

Question: What about the Activity (RKO [27]) of the same molecule?
Answer: Active

Question: And the Activity (HGC-27 [28])?
Answer: Active

Question: What about the Activity (HGC-27 [29]) of the same molecule?
Answer: Active

Question: And the Activity (RKO [30])?
Answer: >80%

Question: And the IC50 (SGC-7901)?
Answer: 14.3 µM

Question: What about the Activity (RKO [31]) of the same molecule?
Answer: Active

Question: And the Activity (HGC-27 [32])?
Answer: Dde

Reference: ChEMBL document CHEMBL5137070, “N-2-(Phenylamino) Benzamide Derivatives as Dual Inhibitors of COX-2 and Topo I Deter Gastrointestinal Cancers via Targeting Inflammation and Tumor Progression” (J Med Chem, 2022)
